Laboratory results: US20190322676A1, “CERAMIDE GALACTOSYLTRANSFERASE INHIBITORS FOR THE TREATMENT OF DISEASE” (BioMarin Pharmaceutical Inc., priority 2016, published 2019)
Where a name gives a salt, the structure may show the parent alone.

Biological target: T1, human CGT (ceramide galactosyltransferase), CHO/CGT lysate (Homo sapiens, UniProt Q16880)
T1 construct: Full-length human CGT cDNA was cloned into the BamH1/Xho1 site of pcDNA3.1 (+); expressed in transfected cells; host or cells: Chinese hamster ovary (CHO) cells; lysate prepared with M-PER
T1 sequence (Q16880 21-541): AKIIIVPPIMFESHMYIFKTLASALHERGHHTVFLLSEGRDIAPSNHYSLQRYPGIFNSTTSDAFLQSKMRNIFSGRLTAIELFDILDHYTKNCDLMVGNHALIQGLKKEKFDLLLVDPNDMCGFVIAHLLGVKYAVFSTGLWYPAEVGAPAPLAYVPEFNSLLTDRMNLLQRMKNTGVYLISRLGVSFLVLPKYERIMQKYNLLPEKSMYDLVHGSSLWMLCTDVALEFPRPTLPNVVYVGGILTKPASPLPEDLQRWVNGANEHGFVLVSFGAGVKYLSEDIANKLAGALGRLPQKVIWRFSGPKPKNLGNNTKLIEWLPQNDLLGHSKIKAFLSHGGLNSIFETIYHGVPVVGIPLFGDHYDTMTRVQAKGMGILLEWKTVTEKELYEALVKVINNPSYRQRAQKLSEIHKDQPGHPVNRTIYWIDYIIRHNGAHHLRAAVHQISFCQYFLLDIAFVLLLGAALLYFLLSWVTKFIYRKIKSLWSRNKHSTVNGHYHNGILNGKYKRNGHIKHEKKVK
Assay: CGT enzyme assay, RapidFire/MS/MS readout with 0.01% Tween added (Table 1 ranges with two asterisks **)
Type: biochemical
Conditions: CGT enzymatic assay; range with two asterisks (**): RapidFire/MS/MS method with 0.01% Tween added
Procedure: Full-length human CGT cDNA was cloned into the BamH1/Xho1 site of pcDNA3.1 (+) mammalian expression vector (V90-20, Invitrogen, Carlsbad, Calif.) and the plasmid was transfected into Chinese hamster ovary (CHO) cells. Lysate was prepared using M-PER (Mammalian Protein Extraction Reagent, ThermoFisher Scientific, Grand Island, N.Y.) in the presence of a protease inhibitor cocktail (P8340, Sigma, Saint Louis, Mo.). Each 100 mm dish (100% confluent, approximately 1×10^7 cells) was lysed with 250 μL of M-PER containing protease inhibitors. Protein concentration was determined using a Pierce BCA protein assay kit (ThermoFisher Scientific). Four micrograms of CHO/CGT lysate was incubated with various concentrations of a compound (0.001 μM-50 μM) in 10 mM HEPES (pH 7.2) containing 35 μM dioleoylphosphatidylcholine, 5 mM MgCl2, 5 mM MnCl2, 1% BSA, 15 mM KCl, 1 mM EGTA, 8 mM CHAPS, 10 μM C6-NBD-dihydro-ceramide and 17.5 μM UDP-galactose in a final reaction volume of 20 μL at 37° C. for 1 hour. The final concentration of DMSO was 0.5% in both compound-treated and mock-treated samples. Tween 80 (0.01%) was optionally added to the reaction mixture to help solubilize the compounds. Each individual reaction was diluted with 80 μL of methanol:acetronitrile (1:3) containing 5 μM N-docdecanoyl-NBD-galactosylceramide (internal standard) to stop the reaction. 200 μL H2O:acetonitile (1:1) was added to precipitate the protein. After sufficient mixing, the plates were centrifuged at 2469 g for 38 minutes, 200 μL of supernatant was transferred to a LC/MS 96-deep well plate and a second spin was performed at 2469 g for 10 minutes. The final supernatant was injected in triplicate for RapidFire/MS/MS analysis.
Quantitative Analysis Using the RapidFire/MS/MS Method:
The quantitative analysis of C6-NBD-dihydro-ceramide and C6-NBD-dihydro-galactosylceramide was performed on a Rapid Fire 360 high-throughput mass spectrometry system (Agilent Technologies, Palo Alto, Calif.) coupled with a API4000^+ triple quadrupole mass spectrometer (Applied Biosystems, Concord, Ontario, Canada). RapidFire software packages, including RapidFire Control panel, RapidFire UI and RapidFire Integrator (Agilent Technologies), were used to control the RapidFire instrument and to process data. Analyst 1.6.2 software packages (Applied Biosystems) were used to control the MS system and acquire MS data. […] of sample was loaded on a micro-scale C4 solid-phase extraction (SPE) cartridge (Agilent Technologies) and salts were removed using water supplemented with 0.1% formic acid at the flow rate of 1.5 mL/min for 3 sec. C6-NBD-dihydro-ceramide and C6-NBD-dihydro-galactosylceramide were co-eluted into the mass spectrometer using acetonitrile containing 0.1% formic acid at the flow rate of 1.0 mL/min for 3 sec. The total cycle time of one injection was 8 secs. The MS/MS detection was performed in ESI negative mode. The mass transition of C6-NBD-dihydro-galactosylceramide was m/z 752.6→678.6 using a −40 V collision energy, the mass transition of C6-NBD-dihydro-ceramide was m/z 590.6→115.8 using a −40 V collision energy and the mass transition of N-docdecanoyl-NBD-galactosylceramide was m/z 820.9→746.3 using a −45 V collision energy.
The C6-NBD-dihydro-galactosylceramide reading was normalized first by dividing the peak area of C6-NBD-dihydro-galactosylceramide by the peak area of the internal standard, N-docdecanoyl-NBD-galactosylceramide. IC50 values (see Table 1, where data ranges with one asterix (*) correspond to analysis using the RapidFire/MS/MS method, and data ranges with two asterixes (**) correspond to analysis using the RapidFire/MS/MS method with 0.01% Tween added) were generated from sigmoidal dose-response curves (variable slope) with GraphPad Prism software (GraphPad Software, Inc., San Diego, Calif.) using the normalized peak areas of C6-NBD-dihydro-galactosylceramide or the percent inhibition of C6-NBD-dihydro-galactosylceramide accumulation relative to DMSO control. […]

IC50 [µM]	SMILES
1 to 10	N[C@@H]1CCN(C(=O)[C@H](NS(=O)(=O)c2ccc(OCC3CCCCC3)cc2)C(F)(F)c2ccc(-c3ccc(Cl)cc3)cc2)C1 [Compound 155-2, N—((S)-3-((R)-3-aminopyrrolidin-1-yl)-1-(4′-chloro-[1,1′-biphenyl]-4-yl)-1,1-difluoro-3-oxopropan-2-yl)-4-(cyclohexylmethoxy) benzenesulfonamide trifluoroacetate]
1 to 10	NC1CCN(C(=O)[C@@H](NS(=O)(=O)c2ccc(OCC3CCCCC3)cc2)C(F)(F)c2ccc(-c3ccccc3)cc2)CC1 [Compound 156-1, (R)—N-(1-([1,1′-biphenyl]-4-yl)-3-(4-aminopiperidin-1-yl)-1,1-difluoro-3-oxopropan-2-yl)-4-(cyclohexylmethoxy)benzenesulfonamide trifluoroacetate]
30 to 100	NC1CCN(C(=O)[C@H](NS(=O)(=O)c2ccc(OCC3CCCCC3)cc2)C(F)(F)c2ccc(-c3ccccc3)cc2)CC1 [Compound 156-2, (S)—N-(1-([1,1′-biphenyl]-4-yl)-3-(4-aminopiperidin-1-yl)-1,1-difluoro-3-oxopropan-2-yl)-4-(cyclohexylmethoxy)benzenesulfonamide trifluoroacetate]
30 to 100	CN(CCCN)C(=O)[C@H](NS(=O)(=O)c1ccc2cc(OC3CCCC3)ccc2c1)C(F)(F)c1ccc(-c2ccc(Cl)cc2)cc1 [Compound 157-2, (S)—N-(3-aminopropyl)-3-(4′-chloro-[1,1′-biphenyl]-4-yl)-2-((6-(cyclopentyloxy)naphthalene)-2-sulfonamido)-3,3-difluoro-N-methyl propanamide]
1 to 10	NC1CCN(C(=O)[C@@H](NC(=O)[C@H](O)c2ccc3cc(OC4CCCC4)ccc3c2)C(F)(F)c2ccc(-c3ccc(Cl)cc3)cc2)CC1 [Compound 159-1, (R)—N—((R)-3-(4-aminopiperidin-1-yl)-1-(4′-chloro-[1,1′-biphenyl]-4-yl)-1,1-difluoro-3-oxopropan-2-yl)-2-(6-(cyclopentyloxy)naphthalen-2-yl)-2-hydroxyacetamide trifluoroacetate]
30 to 100	NC1CCN(C(=O)[C@H](NC(=O)[C@@H](O)c2ccc3cc(OC4CCCC4)ccc3c2)C(F)(F)c2ccc(-c3ccc(Cl)cc3)cc2)CC1 [Compound 159-2, (S)—N—((S)-3-(4-aminopiperidin-1-yl)-1-(4′-chloro-[1,1′-biphenyl]-4-yl)-1,1-difluoro-3-oxopropan-2-yl)-2-(6-(cyclopentyloxy)naphthalen-2-yl)-2-hydroxyacetamide trifluoroacetate]
1 to 10	NC1CCN(C(=O)[C@@H](NC(=O)[C@@H](O)c2ccc3cc(OC4CCCC4)ccc3c2)C(F)(F)c2ccc(-c3ccc(Cl)cc3)cc2)CC1 [Compound 159-3, (S)—N—((R)-3-(4-aminopiperidin-1-yl)-1-(4′-chloro-[1,1′-biphenyl]-4-yl)-1,1-difluoro-3-oxopropan-2-yl)-2-(6-(cyclopentyloxy)naphthalen-2-yl)-2-hydroxyacetamide trifluoroacetate]
30 to 100	NC1CCN(C(=O)[C@H](NC(=O)[C@H](O)c2ccc3cc(OC4CCCC4)ccc3c2)C(F)(F)c2ccc(-c3ccc(Cl)cc3)cc2)CC1 [Compound 159-4, (R)—N—((S)-3-(4-aminopiperidin-1-yl)-1-(4′-chloro-[1,1′-biphenyl]-4-yl)-1,1-difluoro-3-oxopropan-2-yl)-2-(6-(cyclopentyloxy)naphthalen-2-yl)-2-hydroxyacetamide trifluoroacetate]

SMILES	IC50 [µM]
CN(CCCN)C(=O)[C@@H](NS(=O)(=O)c1ccc2cc(OC3CCCC3)ccc2c1)C(F)(F)c1ccc(-c2ccc(Cl)cc2)cc1 [Compound 157-1, (R)—N-(3-aminopropyl)-3-(4′-chloro-[1,1′-biphenyl]-4-yl)-2-((6-(cyclopentyloxy)naphthalene)-2-sulfonamido)-3,3-difluoro-N-methylpropanamide]	1 to 10
NC1CC2CCC(C1)N2C(=O)[C@@H](NC(=O)[C@H](O)c1ccc2cc(OC3CCCC3)ccc2c1)C(F)(F)c1ccc2cc(Br)ccc2c1 (stereo partly drawn) [Compound 158-1, (2R)—N-((2R)-3-(3-amino-8-azabicyclo[3.2.1]octan-8-yl)-1-(6-bromonaphthalen-2-yl)-1,1-difluoro-3-oxopropan-2-yl)-2-(6-(cyclopentyloxy)naphthalen-2-yl)-2-hydroxyacetamide trifluoroacetate]	1 to 10
NC1CC2CCC(C1)N2C(=O)[C@H](NC(=O)[C@@H](O)c1ccc2cc(OC3CCCC3)ccc2c1)C(F)(F)c1ccc2cc(Br)ccc2c1 (stereo partly drawn) [Compound 158-2, (2S)—N-((2 S)-3-(3-amino-8-azabicyclo[3.2.1]octan-8-yl)-1-(6-bromonaphthalen-2-yl)-1,1-difluoro-3-oxopropan-2-yl)-2-(6-(cyclopentyloxy)naphthalen-2-yl)-2-hydroxyacetamide trifluoroacetate]	30 to 100
NC1CC2CCC(C1)N2C(=O)[C@@H](NC(=O)[C@@H](O)c1ccc2cc(OC3CCCC3)ccc2c1)C(F)(F)c1ccc2cc(Br)ccc2c1 (stereo partly drawn) [Compound 158-3, (2S)—N-((2R)-3-(3-amino-8-azabicyclo[3.2.1]octan-8-yl)-1-(6-bromonaphthalen-2-yl)-1,1-difluoro-3-oxopropan-2-yl)-2-(6-(cyclopentyloxy)naphthalen-2-yl)-2-hydroxyacetamide trifluoroacetate]	10 to 30
NC1CC2CCC(C1)N2C(=O)[C@H](NC(=O)[C@H](O)c1ccc2cc(OC3CCCC3)ccc2c1)C(F)(F)c1ccc2cc(Br)ccc2c1 (stereo partly drawn) [Compound 158-4, (2R)—N-((2S)-3-(3-amino-8-azabicyclo[3.2.1]octan-8-yl)-1-(6-bromonaphthalen-2-yl)-1,1-difluoro-3-oxopropan-2-yl)-2-(6-(cyclopentyloxy)naphthalen-2-yl)-2-hydroxyacetamide trifluoroacetate]	30 to 100
NC1CC2CCC(C1)N2C(=O)[C@@H](NC(=O)C(=O)c1ccc2cc(OC3CCCC3)ccc2c1)C(F)(F)c1ccc2cc(Br)ccc2c1 (stereo partly drawn) [Compound 160-1, N-((2R)-3-(3-amino-8-azabicyclo[3.2.1]octan-8-yl)-1-(6-bromonaphthalen-2-yl)-1,1-difluoro-3-oxopropan-2-yl)-2-(6-(cyclopentyloxy)naphthalen-2-yl)-2-oxoacetamide trifluoroacetate]	10 to 30
NC1CC2CCC(C1)N2C(=O)[C@H](NC(=O)C(=O)c1ccc2cc(OC3CCCC3)ccc2c1)C(F)(F)c1ccc2cc(Br)ccc2c1 (stereo partly drawn) [Compound 160-2, N-((2S)-3-(3-amino-8-azabicyclo[3.2.1]octan-8-yl)-1-(6-bromonaphthalen-2-yl)-1,1-difluoro-3-oxopropan-2-yl)-2-(6-(cyclopentyloxy)naphthalen-2-yl)-2-oxoacetamide trifluoroacetate]	30 to 100
